These compounds were tested on Key Grass and Sedge Weeds as well as Grass Crops (assay: Post-Emergent Test II (Table 6)). Conditions: CYPSS (CYPES: yellow nutsedge, Cyperus esculentus), 140 g ai/ha.
Type: in vivo
Experimental: Seeds or nutlets of the desired test plant species were planted in Sun Gro Metro-Mix® 360 planting mixture, which typically has a pH of 6.0 to 6.8 and an organic matter content of about 30 percent, in plastic pots with a surface area of 64 square centimeters. When required to ensure good germination and healthy plants, a fungicide treatment and/or other chemical or physical treatment was applied. The plants were grown for 7-21 days in a greenhouse with an approximate 15 h photoperiod which was maintained at about 23-29° C. during the day and 22-28° C. during the night. Nutrients and water were added on a regular basis and supplemental lighting was provided with overhead metal halide 1000-Watt lamps as necessary. The plants were employed for testing when they reached the first or second true leaf stage.
A weighed amount, determined by the highest rate to be tested, of each test compound was placed in a 25 mL glass vial and was dissolved in 4 mL of a 97:3 v/v mixture of acetone and DMSO to obtain concentrated stock solutions. […] The concentrated stock solutions obtained were diluted with 20 mL of an aqueous mixture containing acetone, water, isopropyl alcohol, DMSO, Atplus 411F crop oil concentrate, and Triton® X-155 surfactant in a 48.5:39:10:1.5:1.0:0.02 v/v ratio to obtain spray solutions containing the highest application rates. Additional application rates were obtained by serial dilution of 12 mL of the high rate solution into a solution containing 2 mL of 97:3 v/v mixture of acetone and DMSO and 10 mL of an aqueous mixture containing acetone, water, isopropyl alcohol, DMSO, Atplus 411F crop oil concentrate, and Triton X-155 surfactant in a 48.5:39:10:1.5:1.0:0.02 v/v ratio to obtain ½×, ¼×, ⅛× and 1/16× rates of the high rate. Compound requirements are based upon a 12 mL application volume at a rate of 187 liters per hectare (L/ha). Formulated compounds were applied to the plant material with an overhead Mandel track sprayer equipped with 8002E nozzles calibrated to deliver 187 L/ha over an application area of 0.503 square meters at a spray height of 18 inches (43 cm) above the average plant canopy height. Control plants were sprayed in the same manner with the solvent blank.
The treated plants and control plants were placed in a greenhouse as described above and watered by subirrigation to prevent wash-off of the test compounds. After 14 days, the condition of the test plants as compared with that of the untreated plants was determined visually and scored on a scale of 0 to 100 percent where 0 corresponds to no injury and 100 corresponds to complete kill and presented as indicated in Table A. Some of the compounds tested, application rates employed, plant species tested, and results are given in Table 5.
In the case of Nc1cc(-c2ccc(Cl)c(F)c2C(F)F)nc(C(=O)O)c1Cl [Compound 13, 4-Amino-3-chloro-6-(4-chloro-2-(difluoromethyl)-3-fluorophenyl)picolinic acid], the “Visual Growth Reduction (%) 14 Days After Application, CYPSS” value is reported as “G (0-29)”.

Same assay, conditions: DIGSA: crabgrass (Digitaria sanguinalis), 70 g ai/ha
In the case of Nc1cc(-c2ccc(Cl)c(F)c2C(F)F)nc(C(=O)O)c1Cl [Compound 13, 4-Amino-3-chloro-6-(4-chloro-2-(difluoromethyl)-3-fluorophenyl)picolinic acid], the “Visual Growth Reduction (%) 14 Days After Application, DIGSA” value is reported as “G (0-29)”.

Same assay, conditions: DIGSA: crabgrass (Digitaria sanguinalis), 140 g ai/ha
For Nc1cc(-c2ccc(Cl)c(F)c2C(F)F)nc(C(=O)O)c1Cl [Compound 13, 4-Amino-3-chloro-6-(4-chloro-2-(difluoromethyl)-3-fluorophenyl)picolinic acid], the “Visual Growth Reduction (%) 14 Days After Application, DIGSA” value was “G (0-29)”.

Same assay, conditions: ECHSS (ECHCG: barnyardgrass, Echinochloa crus-galli), 70 g ai/ha
For Nc1cc(-c2ccc(Cl)c(F)c2C(F)F)nc(C(=O)O)c1Cl [Compound 13, 4-Amino-3-chloro-6-(4-chloro-2-(difluoromethyl)-3-fluorophenyl)picolinic acid], the “Visual Growth Reduction (%) 14 Days After Application, ECHSS” value was “G (0-29)”.

Same assay, conditions: ECHSS (ECHCG: barnyardgrass, Echinochloa crus-galli), 140 g ai/ha
Nc1cc(-c2ccc(Cl)c(F)c2C(F)F)nc(C(=O)O)c1Cl [Compound 13, 4-Amino-3-chloro-6-(4-chloro-2-(difluoromethyl)-3-fluorophenyl)picolinic acid] was tested, and the “Visual Growth Reduction (%) 14 Days After Application, ECHSS” value was “G (0-29)”.

Same assay, conditions: ORYSS (ORYSA: rice, Oryza sativa), crop, 70 g ai/ha
With Nc1cc(-c2ccc(Cl)c(F)c2C(F)F)nc(C(=O)O)c1Cl [Compound 13, 4-Amino-3-chloro-6-(4-chloro-2-(difluoromethyl)-3-fluorophenyl)picolinic acid] the “Visual Growth Reduction (%) 14 Days After Application, ORYSS” value was “G (0-29)”.

Same assay, conditions: ORYSS (ORYSA: rice, Oryza sativa), crop, 140 g ai/ha
Nc1cc(-c2ccc(Cl)c(F)c2C(F)F)nc(C(=O)O)c1Cl [Compound 13, 4-Amino-3-chloro-6-(4-chloro-2-(difluoromethyl)-3-fluorophenyl)picolinic acid] was tested, and the “Visual Growth Reduction (%) 14 Days After Application, ORYSS” value was “G (0-29)”.

Same assay, conditions: SETFA: giant foxtail (Setaria faberi), 70 g ai/ha
With Nc1cc(-c2ccc(Cl)c(F)c2C(F)F)nc(C(=O)O)c1Cl [Compound 13, 4-Amino-3-chloro-6-(4-chloro-2-(difluoromethyl)-3-fluorophenyl)picolinic acid] the “Visual Growth Reduction (%) 14 Days After Application, SETFA” value was “G (0-29)”.

Same assay, conditions: SETFA: giant foxtail (Setaria faberi), 140 g ai/ha
In the case of Nc1cc(-c2ccc(Cl)c(F)c2C(F)F)nc(C(=O)O)c1Cl [Compound 13, 4-Amino-3-chloro-6-(4-chloro-2-(difluoromethyl)-3-fluorophenyl)picolinic acid], the “Visual Growth Reduction (%) 14 Days After Application, SETFA” value is reported as “G (0-29)”.

Same assay, conditions: SORVU: johnsongrass (Sorghum vulgare), 70 g ai/ha
In the case of Nc1cc(-c2ccc(Cl)c(F)c2C(F)F)nc(C(=O)O)c1Cl [Compound 13, 4-Amino-3-chloro-6-(4-chloro-2-(difluoromethyl)-3-fluorophenyl)picolinic acid], the “Visual Growth Reduction (%) 14 Days After Application, SORVU” value is reported as “G (0-29)”.

Same assay, conditions: SORVU: johnsongrass (Sorghum vulgare), 140 g ai/ha
With Nc1cc(-c2ccc(Cl)c(F)c2C(F)F)nc(C(=O)O)c1Cl [Compound 13, 4-Amino-3-chloro-6-(4-chloro-2-(difluoromethyl)-3-fluorophenyl)picolinic acid] the “Visual Growth Reduction (%) 14 Days After Application, SORVU” value was “G (0-29)”.

Same assay, conditions: TRZSS (TRZAS: wheat, spring, Triticum aestivum), crop, 70 g ai/ha
In the case of Nc1cc(-c2ccc(Cl)c(F)c2C(F)F)nc(C(=O)O)c1Cl [Compound 13, 4-Amino-3-chloro-6-(4-chloro-2-(difluoromethyl)-3-fluorophenyl)picolinic acid], the “Visual Growth Reduction (%) 14 Days After Application, TRZSS” value is reported as “G (0-29)”.

Same assay, conditions: TRZSS (TRZAS: wheat, spring, Triticum aestivum), crop, 140 g ai/ha
Nc1cc(-c2ccc(Cl)c(F)c2C(F)F)nc(C(=O)O)c1Cl [Compound 13, 4-Amino-3-chloro-6-(4-chloro-2-(difluoromethyl)-3-fluorophenyl)picolinic acid] was tested, and the “Visual Growth Reduction (%) 14 Days After Application, TRZSS” value was “G (0-29)”.

Same assay, conditions: ZEAMX: maize, corn (Zea mays), crop, 70 g ai/ha
For Nc1cc(-c2ccc(Cl)c(F)c2C(F)F)nc(C(=O)O)c1Cl [Compound 13, 4-Amino-3-chloro-6-(4-chloro-2-(difluoromethyl)-3-fluorophenyl)picolinic acid], the “Visual Growth Reduction (%) 14 Days After Application, ZEAMX” value was “G (0-29)”.

Same assay, conditions: ZEAMX: maize, corn (Zea mays), crop, 140 g ai/ha
With Nc1cc(-c2ccc(Cl)c(F)c2C(F)F)nc(C(=O)O)c1Cl [Compound 13, 4-Amino-3-chloro-6-(4-chloro-2-(difluoromethyl)-3-fluorophenyl)picolinic acid] the “Visual Growth Reduction (%) 14 Days After Application, ZEAMX” value was “G (0-29)”.

Reference: US10765114B2, “4-amino-6-(pyridyl and 2-substitutedphenyl)-picolinates and 6-amino-2-(pyridyl and 2-substitutedphenyl)-pyrimidine-4-carboxylates and their use as herbicides” (Dow AgroSciences LLC, priority 2013, dated 2020)
